Measured values published in patent US11117899B2, “[1,2,4]triazolo[1,5-c]pyrimidine derivative as A2A receptor inhibitor” (MEDSHINE DISCOVERY INC., priority 2017, dated 2021).

biological target: T1, Human adenosine A2A receptor (Homo sapiens, UniProt P29274); experiment: Human adenosine A2A receptor calcium flux assay; type: cell-based; details: A2A stable CHO cell strain, antagonist mode against agonist NECA at EC80, FLIPR Fluo-4
T1 construct: host or cells: CHO
Procedure: Human adenosine A2A receptor calcium flux assay
A2A stable cell strain was constructed by Shanghai WuXi PharmaTech, and the host cell was CHO.
Fluo-4 Direct Kit (Invitrogen, Cat. No. F10471). After the fluorescent detection reagent (specifically binding to calcium ions and causing an increase in fluorescence signal) in the kit was incubated with the cells for a suitable period of time, the compound was added to stimulate the cells to cause changes in intracellular calcium flux, thereby causing changes in the fluorescent signal, which can reflect the strength of the agonistic or inhibitory activity of the compound.
F12+10% fetal bovine serum+geneticin 300 ug/ml+blasticidin 2 ug/ml Compound dilution buffer:
Hanks Balanced Salt Buffer (Invitrogen)+20 mM HEPES, configured before each use
The test compounds were dissolved in DMSO to prepare 10 mM stock solutions. The test compounds were diluted to 0.2 mM with DMSO, and the reference compound CGS-15943 was diluted to 0.015 mM with DMSO. Next, 10 points of three-fold serial dilutions were made with ECHO. 900 nl was transferred to the compound plate (Greiner-781280), and 30 ul of compound dilution buffer was added. The final starting concentration of the test compounds was 1 uM and CGS-15943 was 0.075 uM.
Cryopreserved A2A cells were resuscitated, and then resuspended in culture medium to 1×10^6 cells/ml. The suspension was seeded into 384-well polylysine-coated cell plates (Greiner-781946) at 20 μl/well and incubated overnight in a 5% CO2 incubator at 37° C.
The cell plate prepared the day before was taken out from the incubator, and 20 ul of 2× Fluo-4 Direct™ buffer was added to each well. The plate was incubated for 50 minutes in a 5% CO2 incubator at 37° C. and allowed to stand at room temperature for 10 minutes.
Dilution of agonist NECA: 10 points of three-fold serial dilutions were made with Echo for NECA from a starting concentration of 0.15 mM. 900 nL was then transferred to the corresponding compound plate; and then 30 μl of compound dilution buffer was added to the corresponding compound plate. The final starting concentration was 750 nM.
FLIPR instrument software was run. According to the programmed procedure, 10 ul of compound dilution buffer was added to the cell plate and the fluorescence signal was read. 10 ul of the agonist reference compound at the indicated concentration was then added to the cell plate and the fluorescent signal was read. After reading, the data was exported by the “Max-Min”, “Read 90 to Maximum allowed” method in the software, and the EC80 of the A2A cell line was calculated. The agonist was prepared at a concentration of 6× EC80. A 6× EC80 concentration of a reference compound agonist of the corresponding cells was prepared with a buffer solution, and added at 30 ul/well to the corresponding compound plate for use.
FLIPR instrument software was run. According to the programmed procedure, 10 μl of the test compounds and reference compound at an indicated concentration was added to the cell plate and the fluorescence signal was read. 10 ul of the reference compound agonist at a concentration of 6× EC80 was then added to the cell plate and the fluorescent signal was read. For the agonist detection of the compounds, the data was exported by the “Max-Min”, “Read 1 to 90” method in the software. For the antagonist detection of the compound, the data was exported by the “Max-Min”, “Read 90 to Maximum allowed” method in the software. Data were analyzed by GraphPad Prism 5.0 and the IC50 values of the test compounds were calculated.

T1 sequence (P29274 whole entry): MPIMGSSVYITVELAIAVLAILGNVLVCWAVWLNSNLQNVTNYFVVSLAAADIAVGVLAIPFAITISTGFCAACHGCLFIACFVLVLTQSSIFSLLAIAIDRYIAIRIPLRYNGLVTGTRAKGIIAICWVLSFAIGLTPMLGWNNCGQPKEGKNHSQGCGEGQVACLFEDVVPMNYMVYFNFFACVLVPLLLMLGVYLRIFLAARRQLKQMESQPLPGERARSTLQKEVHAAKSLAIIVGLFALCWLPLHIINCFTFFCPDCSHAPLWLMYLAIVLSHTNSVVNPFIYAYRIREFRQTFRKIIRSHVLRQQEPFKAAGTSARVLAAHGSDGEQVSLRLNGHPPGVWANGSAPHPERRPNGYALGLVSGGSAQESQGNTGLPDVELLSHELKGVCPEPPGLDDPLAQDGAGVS

SMILES	IC50 [nM]
Nc1nc(-c2ccc(F)cc2)c(-c2ccc3nn[nH]c3c2)c2nc(CO)nn12 [Example C-45]	2.06
Cc1cc(-c2c(-c3ccc(F)cc3F)nc(N)n3nc(C)nc23)cc(C(F)(F)F)n1 [Example C-51]	13.6
Nc1nc(-c2ccccc2)c(-c2ccc3[nH]nnc3c2)c2nc(C3CC3)nn12 [Example C-26]	4.34
Nc1nc(-c2ccc(F)cc2)c(-c2ccc3[nH]nnc3c2)c2nc(C(F)(F)F)nn12 [Example C-42]	10.1
Cc1cc(-c2c(-c3ccc(F)cc3)nc(N)n3ncnc23)cc(C(F)(F)F)n1 [Example A-15]	0.38
COc1ccccc1-c1nc(N)n2nc(CO)nc2c1-c1cc(C)nc(C(F)(F)F)c1 [Example C-50]	5.36
Cc1cc(-c2c(-c3nccs3)nc(N)n3ncnc23)cc(C(F)(F)F)n1 [Example A-8]	23.9
Cc1cc(-c2c(-c3ccc(F)cc3)nc(N)n3nc(CN(C)C)nc23)cc(Cl)n1 [Example C-65]	0.84
Cc1cc(-c2c(-c3ccccc3)nc(N)n3nc(CNC4CC4)nc23)cc(C)n1 [Example C-20]	1.2
CCc1nc2c(-c3ccc4[nH]nnc4c3)c(-c3ccccc3)nc(N)n2n1 [Example C-25]	3.16
Cc1cc(Cl)cc(-c2c(-c3ccccc3)nc(N)n3ncnc23)c1 [Example B-26]	14.8
Nc1nc(-c2ccccc2)c(-c2ccc3ncccc3c2)c2ncnn12 [Example B-16]	0.14
Cc1cc(-c2c(-c3ccc(Cl)cc3)nc(N)n3ncnc23)cc(C(F)(F)F)n1 [Example A-9]	1.13
Cc1cc(-c2c(-c3ccccc3)nc(N)n3nc(COCc4ccccc4)nc23)cc(C)n1 [Example C-12]	0.82
Nc1nc(-c2ccccc2)c(-c2ccc3[nH]ncc3c2)c2ncnn12 [Example B-7]	0.17
CC(C)c1cc(-c2c(-c3ccccc3)nc(N)n3ncnc23)cc(C(F)(F)F)n1 [Example B-34]	19
Cc1cc(-c2c(-c3ccc(F)cc3)nc(N)n3nc(C#N)nc23)cc(Cl)n1 [Example C-73]	1.73
COc1ccccc1-c1nc(N)n2ncnc2c1-c1ccc2nn[nH]c2c1 [Example A-30]	20.4
Cc1cc(-c2c(-c3ccc(F)cc3)nc(N)n3nc(C)nc23)cc(Cl)n1 [Example C-54]	1.08
COCCOCc1nc2c(-c3cc(C)nc(Cl)c3)c(-c3ccc(F)cc3)nc(N)n2n1 [Example C-69]	54.3
Nc1nc(-c2ccccc2)c(-c2ccc(O)c(C(F)(F)F)c2)c2ncnn12 [Example B-13]	0.71
COCc1nc2c(-c3cc(C)nc(C)c3)c(-c3ccccc3)nc(N)n2n1 [Example C-14]	0.68

SMILES	IC50 [nM]
Cc1cc(-c2c(-c3ccccc3)nc(N)n3nc(C4CC4)nc23)cc(C)n1 [Example C-11]	0.78
Cc1cc(-c2c(-c3ccccc3)nc(N)n3nc(C)nc23)cc(C)n1 [Example C-6]	0.74
Cc1cc(-c2c(-c3ccccc3)nc(N)n3nc(C)nc23)cc(Cl)n1 [Example C-21]	0.8
Cc1cc(-c2c(-c3ccc(C)o3)nc(N)n3nc(C#N)nc23)cc(C(F)(F)F)n1 [Example C-74]	1.72
COc1cc(F)ccc1-c1nc(N)n2ncnc2c1-c1cc(C)nc(C(F)(F)F)c1 [Example A-23]	1.15
Cc1cc(-c2c(-c3ccc(C#N)cc3)nc(N)n3ncnc23)cc(C(F)(F)F)n1 [Example A-14]	4.07
COc1ccccc1Cc1nc2c(-c3cc(C)nc(C(F)(F)F)c3)c(-c3ccccc3)nc(N)n2n1 [Example C-15]	20.4
Cc1cc(-c2c(-c3ccco3)nc(N)n3ncnc23)cc(C(F)(F)F)n1 [Example A-19]	1.16
Nc1nc(-c2ccccc2)c(-c2ccc3[nH]nc(C(F)(F)F)c3c2)c2ncnn12 [Example B-10]	1.98
COCc1nc2c(-c3cc(C)nc(C(F)(F)F)c3)c(-c3ccccc3)nc(N)n2n1 [Example C-13]	1.02
COc1ccccc1-c1nc(N)n2nc(C)nc2c1-c1cc(C)nc(C(F)(F)F)c1 [Example C-27]	4.93
CCc1nc2c(-c3ccc4nn[nH]c4c3)c(-c3ccc(F)cc3F)nc(N)n2n1 [Example C-38]	15.3
Cc1cc(-c2c(-c3ccc(F)cc3)nc(N)n3nc(CO)nc23)cc(C)n1 [Example C-55]	0.86
Cc1cc(-c2c(-c3ccccc3)nc(N)n3ncnc23)ccc1F [Example B-2]	7.82
Cc1cc(-c2c(-c3ccc(C(F)(F)F)cc3)nc(N)n3ncnc23)cc(C(F)(F)F)n1 [Example A-13]	13.8
COc1ccccc1-c1nc(N)n2ncnc2c1-c1cc(C)nc(C)c1 [Example A-27]	4.38
Cc1cc(-c2c(-c3ccc(F)cc3)nc(N)n3nc(C(C)(C)O)nc23)cc(C(F)(F)F)n1 [Example C-75]	2.03
Cc1cc(-c2c(-c3ccc(F)cc3F)nc(N)n3nc(CO)nc23)cc(C(F)(F)F)n1 [Example C-53]	7.73
Cc1nc2c(-c3ccc4[nH]nnc4c3)c(-c3ccc(F)cc3)nc(N)n2n1 [Example C-59]	9.95
COc1c(F)cc(F)cc1-c1nc(N)n2ncnc2c1-c1cc(Cl)nc(C(F)(F)F)c1 [Example A-33]	15.3
Cc1cc(-c2c(-c3ccc(F)cc3F)nc(N)n3ncnc23)cc(C)n1 [Example A-26]	0.87
COc1ccc(-c2c(-c3ccccc3)nc(N)n3ncnc23)cc1Cl [Example B-3]	9.92

SMILES	IC50 [nM]
Cc1cc(-c2c(-c3ccccc3)nc(N)n3nc(C4CC4)nc23)cc(C(F)(F)F)n1 [Example C-10]	3.68
Nc1nc(-c2ccccc2)c(-c2ccc3[nH]nnc3c2)c2nc(COCc3ccccc3)nn12 [Example C-23]	2.63
Cc1cc(-c2c(-c3ccc(F)cc3)nc(N)n3nc(C#N)nc23)cc(C)n1 [Example C-62]	0.83
CCc1nc2c(-c3cc(C)nc(C(F)(F)F)c3)c(-c3ccccc3OC)nc(N)n2n1 [Example C-30]	2.99
Cc1cc(-c2c(-c3ccc(C)o3)nc(N)n3nc(C(F)(F)F)nc23)cc(C(F)(F)F)n1 [Example C-47]	13.6
Nc1nc(-c2ccccc2)c(-c2ccc3c(c2)CCCN3)c2ncnn12 [Example B-17]	1.89
Cc1cc(-c2c(-c3ccc(C)o3)nc(N)n3nc(CO)nc23)cc(Cl)n1 [Example C-67]	0.26
Cc1cc(-c2c(-c3ccc(C)o3)nc(N)n3nc(CO[C@H]4CCOC4)nc23)cc(C(F)(F)F)n1 [Example C-72]	0.16
Cc1nc2c(-c3ccc4[nH]nnc4c3)c(-c3ccc(F)cc3F)nc(N)n2n1 [Example C-49]	50
CCc1nc2c(-c3cc(C)nc(C(F)(F)F)c3)c(-c3ccccc3)nc(N)n2n1 [Example C-7]	1.35
Cc1cc(-c2c(-c3cc(F)cc(F)c3)nc(N)n3ncnc23)cc(C(F)(F)F)n1 [Example A-5]	0.83
N#Cc1nc2c(-c3cc(Cl)nc(C(F)(F)F)c3)c(-c3ccc(F)cc3)nc(N)n2n1 [Example C-79]	16.9
Cc1cc(-c2c(-c3ccc(F)cc3)nc(N)n3nc(CO[C@H]4CCOC4)nc23)cc(C(F)(F)F)n1 [Example C-71]	0.82
Nc1nc(-c2ccccc2)c(-c2cc(Cl)c(O)c(Cl)c2)c2ncnn12 [Example B-15]	0.44
COc1cc(F)ccc1-c1nc(N)n2ncnc2c1-c1ccc2nn[nH]c2c1 [Example A-29]	37.2
COc1ccccc1-c1nc(N)n2ncnc2c1-c1cc(Cl)nc(C(F)(F)F)c1 [Example A-31]	1.25
Cc1cc(-c2c(-c3ccc(F)cc3)nc(N)n3nc(C(F)(F)F)nc23)cc(C(F)(F)F)n1 [Example C-40]	44.5
Nc1nc(-c2ccccc2)c(-c2cc(C(F)(F)F)c3[nH]ncc3c2)c2ncnn12 [Example B-14]	0.47
COc1ccc(F)cc1-c1nc(N)n2ncnc2c1-c1cc(Cl)nc(C(F)(F)F)c1 [Example A-32]	1.21
Cc1nc2c(-c3ccc4[nH]nnc4c3)c(-c3ccccc3)nc(N)n2n1 [Example C-22]	2.96
